Results taken from US8337828B2, “Use of thymosin alpha 1, alone or in combination with PTX3 or ganciclovir, for the treatment of cytomegalovirus infection” (priority 2006, dated 2012).
Ends that are not written are not given here.

Experiments:
NK cells = assay type: in vivo, BALB/c mice; conditions: 200 μg/kg for a week
Procedure: Phenotypic analysis of total (FIG. 2a, FIG. 2b) or NK (FIG. 2c) cells from spleen of MCMV-infected BALB/c mice untreated (−) or treated (+) with 200 μg/kg Thymosin alpha 1 for a week; None represents uninfected mice. Numbers refer to the percentage of positive cells on FACS analysis, a week after the infection. Histograms are representative of 1 out of 4 independent experiments. (FIG. 2d) Cytotoxic activity (by standard 51Cr-release assay against YAC-1 targets) and frequency of IFN-.-producing NK cells by ELISPOT assay from mice treated as above. Bars indicate the standard errors. *P<0.05, infected vs uninfected mice. **P<0.05, Thymosin alpha 1-treated vs untreated infected mice. The results shown are from 5 independent experiments. Flow cytometry analyses. After blocking of FcRs with the anti-CD16/32 (2.4G2) antibody, cells were analyzed for antigen expression with a FACScan flow cytofluorometer (Becton Dickinson, Mountain View, Calif.) equipped with CELLQuest™ software. Control staining of cells with irrelevant Ab was used to obtain background fluorescence values. Abs were from PharMingen. NK cell cytotoxic activity. NK cells, purified from spleens by DX5 microbeads (Miltenyi Biotec), were defined as NK1.1+CD3-cells. NK cytolytic activity was assessed against 51 Cr-labeled YAC-1 lymphoma cells (Blood 2005; 106:4397-4406). Quantification of cytokines by ELISA and ELISPOT assays. The levels of cytokines in the culture supernatants of mitogen-stimulated spleen cells (48 h stimulation with 10 μg/ml ConA) or MCMV-pulsed DC (24 h) were determined by ELISA (R&D Systems and PBL, Biomedical Lab, Milan, Italy). The detection limits (pg/ml) of the assays were <16 for IL-12 p70, <10 for IFN-., <3 for IL-10 and <10 for IFN-a. IFN-.-producing NK cells were enumerated by ELISPOT assay on purified NK (Virus Res. 2003; 98:17-467 25). Results are expressed as the mean number of cytokine-producing cells (±SE) per 10^5 cells, calculated using replicates of serial 2-fold dilutions of cells.

CD11b+DC or pDC = assay: Cytokine production by MCMV-pulsed DC subsets (ELISA); assay type: cell-based, BALB/c mice; conditions: MCMV-infected
Excerpt: Arrow indicates an inducible band. Lane 1, uninfected cells; lane 2, MCMV-infected; lane 3, Thymosin alpha 1 treated; lane 4, MCMV+Thymosin alpha 1 treated. (FIG. 3b) Cytokine production (pg/ml) by DC subsets treated as above. Bars indicate the standard errors. *P<0.05, cytokine production in MCMV-infected DC vs uninfected DC. **P<0.05, Thymosin alpha 1-treated vs untreated DC. (FIG. 3c) Cytokine production in mice during MCMV infection. Cytokine levels (pg/ml) in culture supernatants of spleen cells from mice with MCMV infection and treated for a week with Thymosin alpha 1 or GCV. *P<0.05, treated vs untreated mice. ND, not done.
DC subset generation. DC were obtained by culturing 10^6/ml BALB/c bone marrow cells in Iscove's modified medium, containing 10% filtered bovine serum, 50 μM 2-mercaptoethanol, sodium pyruvate (1 mM), 2 mM L-glutamine, HEPES (10 mM), and 50 μg/ml gentamycin in the presence of 150 U/ml mouse rGM-CSF (Sigma) and 75 U/ml rIL-4 (R&D Systems) for 7 days to obtain CD11b+DC or 200 ng/ml FLT3-L (Immunex Corporation, Seattle, Wash.) for 9 days to obtain pDC. Final maturation was accomplished by the addition of 1 μg/ml LPS or 2 μg/ml cytosine phosphorothioate-guanine oligodeoxynucleotide (CpG-B ODN 1668) (Coley Pharmaceutical Group, Wellesley, Mass.) for additional 24 h to CD11b+DC or pDC, respectively (Blood 2003; 102: 3807-344; 3814) CD11b+DC were discriminated on CD11chigh expression and were distinctly composed of CD8a+DC and CD11b+DC. pDC were defined as CD11clow, Ly6C+, CD8a+/− cells. Photographs were taken using a high Resolution Microscopy Color Camera AxioCam, using the AxioVision Software Rel. […]
Quantification of cytokines by ELISA and ELISPOT assays. The levels of cytokines in the culture supernatants of mitogen-stimulated spleen cells (48 h stimulation with 10 μg/ml ConA) or MCMV-pulsed DC (24 h) were determined by ELISA (R&D Systems and PBL, Biomedical Lab, Milan, Italy). […] Results are expressed as the mean number of cytokine-producing cells (±SE) per 10^5 cells, calculated using replicates of serial 2-fold dilutions of cells.

[1] = system: methylcholanthrene-induced fibrosarcoma; conditions: mouse, in vivo; cited from earlier work
lymphosarcoma cells = conditions: mouse, in vivo; cited from earlier work
[2] = spleen, MCMV-infected BALB/c mice

Ac-Ser-Asp-Ala-Ala-Val-Asp-Thr-Ser-Ser-Glu -Ile-Thr-Thr-Lys-Asp-Leu-Lys-Glu-Lys-Lys-Glu-Val-Glu-Glu-Ala-Glu-Asn-O (Ac-SDAAVDTSSEITTKDLKEKKEVEEAEN) [Thymosin alpha 1, acidic peptide present in thymus extract with immunoregulatory properties]
frequency of IFN-.-producing cells (ELISPOT) (NK cells; ex-vivo purified splenic NK cells): significantly up-regulated | expansion of CD4+ or CD8+ T cells (NK cells; [2]): not affecting the expansion | expansion of NK1.1+ NK cells (NK cells; [2]): expanded | expression of the activation marker CD69 on NK cells (NK cells; [2]): increased expression | production of IFN-a (CD11b+DC or pDC; CD11b+DC): slightly promoted | production of IFN-a (CD11b+DC or pDC; pDC pre-treated): greatly increased | production of IL-12p70 (CD11b+DC or pDC; pDC pre-treated): not affecting | pulmonary metastases [1]: reduced | local sarcoma growth, liver and lung metastases of lymphosarcoma cells (lymphosarcoma cells): significantly reduced
